Laboratory results published in ChEMBL document CHEMBL2380275, “Synthesis of new heterocyclic hybrids based on pyrazole and thiazolidinone scaffolds as potent inhibitors of tyrosinase” (Bioorg Med Chem, 2013).
Activity calls are given as the source filed them. The calls are words filed in the database; no cut-off is given here.

Assays:
[1] = biological target: T1, Tyrosinase (Agaricus bisporus) (UniProt O42713); test: Inhibition of mushroom tyrosinase using L-DOPA as substrate at 200 uM preincubated for 10 mins by spectrophotometric analysis relative to control
T1 sequence (whole entry): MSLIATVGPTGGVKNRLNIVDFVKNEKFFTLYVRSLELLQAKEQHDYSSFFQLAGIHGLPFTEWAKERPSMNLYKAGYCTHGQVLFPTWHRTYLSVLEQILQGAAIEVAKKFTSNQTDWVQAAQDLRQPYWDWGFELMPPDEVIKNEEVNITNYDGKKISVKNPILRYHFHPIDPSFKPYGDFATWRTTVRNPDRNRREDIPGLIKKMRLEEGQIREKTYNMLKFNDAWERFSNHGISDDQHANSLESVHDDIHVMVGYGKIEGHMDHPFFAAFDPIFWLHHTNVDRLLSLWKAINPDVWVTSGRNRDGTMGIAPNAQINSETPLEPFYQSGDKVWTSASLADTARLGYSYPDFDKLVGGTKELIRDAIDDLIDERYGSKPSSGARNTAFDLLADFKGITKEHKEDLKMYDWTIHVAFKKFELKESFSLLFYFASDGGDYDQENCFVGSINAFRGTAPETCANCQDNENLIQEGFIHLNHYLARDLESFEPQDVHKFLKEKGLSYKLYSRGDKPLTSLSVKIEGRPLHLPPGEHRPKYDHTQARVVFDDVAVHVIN

Tyrosinase [2] = biological target: T2, Tyrosinase (Agaricus bisporus, UniProt O42713)
T2 sequence (O42713 whole entry): T1 sequence (whole entry)
Description: Competitive inhibition of mushroom tyrosinase diphenolase activity assessed as L-DOPA conversion to dopachrome by Lineweaver-Burk plot analysis

Tyrosinase [3] = biological target: T2, Tyrosinase; test: Inhibition of mushroom tyrosinase using L-DOPA as substrate preincubated for 10 mins by spectrophotometric analysis
[4] = biological target: T1, Tyrosinase (Agaricus bisporus); test: Reversible inhibition of mushroom tyrosinase diphenolase activity assessed as L-DOPA conversion to dopachrome by Lineweaver-Burk plot analysis

| SMILES | inhibition [1] [%] | Ki (Tyrosinase [2]) [µM] | IC50 (Tyrosinase [3]) [µM] | inhibition [4] |
| --- | --- | --- | --- | --- |
| COc1ccc(NC2=NC(=O)/C(=C/c3cn(-c4ccccc4)nc3-c3ccc(Cl)cc3)S2)c(OC)c1 | 38 | 5.7 | 74 |  |
| COc1ccc(NC2=NC(=O)/C(=C/c3cn(-c4ccccc4)nc3-c3ccccc3Cl)S2)c(OC)c1 | 126 | 29.1 | 34.1 | Active |
| COc1ccc(NC2=NC(=O)/C(=C/c3cn(-c4ccccc4)nc3-c3ccc(Br)cc3)S2)c(OC)c1 | 87.9 | 9.46 | 131 |  |
| COc1ccc(NC2=NC(=O)/C(=C/c3cn(-c4ccccc4)nc3-c3ccc(C)cc3)S2)c(OC)c1 | 13.5 |  | 194 |  |
| COc1ccc(NC2=NC(=O)/C(=C/c3cn(-c4ccccc4)nc3-c3ccc(F)cc3)S2)c(OC)c1 | 54.2 | 7.18 | 104 |  |
| COc1ccc(NC2=NC(=O)/C(=C/c3cn(-c4ccccc4)nc3-c3ccccc3)S2)c(OC)c1 | 8.03 |  |  |  |
| COc1ccc(NC2=NC(=O)/C(=C/c3cn(-c4ccccc4)nc3-c3ccc(Cl)cc3Cl)S2)c(OC)c1 | 52 | 16.9 | 81.7 |  |
| COc1ccc(NC2=NC(=O)/C(=C/c3cn(-c4ccccc4)nc3-c3cccc(Cl)c3)S2)c(OC)c1 | 110 | 21.5 | 52.6 | Active |
| COc1ccc(-c2nn(-c3ccccc3)cc2/C=C2\SC(Nc3ccc(OC)cc3OC)=NC2=O)cc1 | 46.8 |  | 114 |  |
